Patent US20250339547A1, “MET BCL-XL INHIBITOR ANTIBODY-DRUG CONJUGATES AND METHODS OF USE THEREOF” (Novartis AG, priority 2022, published 2025)
Values belong to the compound of their own block, whether it stands above or below them.

Tests used:
Format in all cases: cell-based
CALU1 = assay: Lung cancer cell line viability, single agent or 1:1 combination (CTG 120h), Example 7; conditions: Homo sapiens, Calu-1, 120 h, CALU1, CTG 120 h
Description: (§1) Cell lines were cultured in the media described above at 37° C. in a humidified atmosphere containing 5% CO2. Cells were seeded in 96 well clear bottom plates (96 well clear-bottom, white, Corning reference 3903) and exposed to the mAbs, mAbs mixture, ADCs or ADCs mixture as single agents or in 1:1 combination with Paclitaxel. When in 1:1 combination, both the combining partner (Paclitaxel) and the mAb, mAb mixture, ADC or ADC mixture were serially diluted (9 concentrations each, triplicates). Effect on cell viability was assessed after 5 days of incubation at 37° C./5% CO2 by quantification of cellular ATP levels using CellTiter-Glo reagent (Promega Ref: G7571) at 75 μL reagent/well. All the conditions were tested in triplicates. Luminescence was quantified on a multipurpose plate reader. IC50s were calculated using standard four-parametric curve fitting. IC50 is defined as the compound concentration at which the CTG signal is reduced to 50% of that measured for the control. Two independent experiments were performed (N1 and N2).

HCC366 = assay: as above; conditions: HCC366, 120 h, HCC366, CTG 120 h
Description: as §1

HCC4006 = assay: as above; conditions: Homo sapiens, HCC4006, 120 h, HCC4006, CTG 120 h
Description: as §1

HCC78 = assay: as above; conditions: Homo sapiens, HCC78, 120 h, HCC78, CTG 120 h
Description: as §1

HCC827 = assay: as above; conditions: Homo sapiens, HCC827, 120 h, HCC827, CTG 120 h
Description: as §1

LU65 = assay: as above; conditions: Homo sapiens, Lu-65, 120 h, LU65, CTG 120 h
Description: as §1

NCI-H1838 = assay: as above; conditions: Homo sapiens, NCI-H1838, 120 h, NCI-H1838, CTG 120 h
Description: as §1

NCI-H1975 = assay: as above; conditions: Homo sapiens, NCI-H1975, 120 h, NCI-H1975, CTG 120 h
Description: as §1

NCI-H441 = assay: as above; conditions: Homo sapiens, NCI-H441, 120 h, NCI-H441, CTG 120 h
Description: as §1

[1] = tested on: HCC78 lung cancer cell line; assay: HCC78 viability, single agent or 1:1 combination with Paclitaxel (CTG 120h), Example 8; conditions: for effect on the viability: HCC-78, single agents, FIG. 3
Description: HCC78 lung cancer cell line was cultured in the media described above at 37° C. in a humidified atmosphere containing 5% CO2. Cells were seeded in 96 well clear bottom plates (96 well clear-bottom, white, Corning reference 3903) and exposed to the mAbs or ADCs as single agents or in 1:1 combination with Paclitaxel. When in 1:1 combination, both Paclitaxel and the mAb or ADC were serially diluted (9 concentrations each, triplicates). Effect on cell viability was assessed after 5 days of incubation at 37° C./5% CO2 by quantification of cellular ATP levels using CellTiter-Glo reagent (Promega Ref: G7571) at 75 μL reagent/well. All the conditions were tested in triplicates. Luminescence was quantified on a multipurpose plate reader. IC50s were calculated using standard four-parametric curve fitting. IC50 is defined as the compound concentration at which the CTG signal is reduced to 50% of that measured for the control. Two independent experiments were performed (N1 and N2).

AsPC-1 = assay: Pancreatic cancer cell line viability, single agent or 1:1 combination (CTG 120h), Example 10; conditions: Homo sapiens, ASPC1, 120 h, AsPC-1, CTG 120 h
Description: (§2) Cell lines were cultured in the media described above at 37° C. in a humidified atmosphere containing 5% CO2. Cells were seeded in 96 well clear bottom plates (96 well clear-bottom, white, Corning reference 3903) and exposed to the mAbs or ADCs as single agents or in 1:1 combination with Paclitaxel, Trametinib or Gemcitabine. When in 1:1 combination, both the combining partner (Paclitaxel, Trametinib or Gemcitabine) and the mAb or ADC were serially diluted (9 concentrations each, triplicates). Effect on cell viability was assessed after 5 days of incubation at 37° C./5% CO2 by quantification of cellular ATP levels using CellTiter-Glo reagent (Promega Ref: G7571) at 75 μL reagent/well. All the conditions were tested in triplicates. Luminescence was quantified on a multipurpose plate reader. IC50s were calculated using standard four-parametric curve fitting. IC50 is defined as the compound concentration at which the CTG signal is reduced to 50% of that measured for the control. Two independent experiments were performed (N1 and N2).

BxPC-3 = assay: as above; conditions: Homo sapiens, BXPC-3, 120 h, BxPC-3, CTG 120 h
Description: as §2

Hs766T = assay: as above
Description: as §2

KP-4 = assay: as above; conditions: Homo sapiens, KP-4, 120 h, KP-4, CTG 120 h
Description: as §2

Panc 10.05 = assay: as above; conditions: Homo sapiens, Panc1005, 120 h, Panc 10.05, CTG 120 h
Description: as §2

- IC50 (CALU1; Mean): 14.6 nM
- IC50 (CALU1; n1): 1.78 nM
- IC50 (CALU1; n2): 14.6 nM
- IC50 (HCC366; Mean): 29.4 nM
- IC50 (HCC366; n1): 14.9 nM
- IC50 (HCC366; n2): 43.8 nM
- IC50 (HCC4006; Mean): 7460 nM
- IC50 (HCC4006; n1): 7460 nM
- IC50 (HCC4006; n2): > 10000 nM
- IC50 (HCC78; Mean): 2260 nM
- IC50 (HCC78; n1): 3220 nM
- IC50 (HCC78; n2): 1310 nM
- IC50 (HCC827; Mean): 108 nM
- IC50 (HCC827; n1): 57.4 nM
- IC50 (HCC827; n2): 158 nM
- IC50 (LU65; Mean): > 10000 nM
- IC50 (LU65; n1): 5610 nM
- IC50 (LU65; n2): > 10000 nM
- IC50 (NCI-H1838; Mean): 34 nM
- IC50 (NCI-H1838; n1): 41.4 nM
- IC50 (NCI-H1838; n2): 26.7 nM
- IC50 (NCI-H1975; Mean): 9030 nM
- IC50 (NCI-H1975; n1): 9030 nM
- IC50 (NCI-H1975; n2): > 10000 nM
- IC50 (NCI-H441; Mean): 1020 nM
- IC50 (NCI-H441; n1): 1010 nM
- IC50 (NCI-H441; n2): 1030 nM
- IC50 (AsPC-1; mean): 244 nM
- IC50 (AsPC-1; n1): 368 nM
- IC50 (AsPC-1; n2): 121 nM
- IC50 (BxPC-3; mean): 21800 nM
- IC50 (BxPC-3; n1): 20800 nM
- IC50 (BxPC-3; n2): 22800 nM
- IC50 (Hs766T; mean): 1640 nM
- IC50 (Hs766T; n1): 1900 nM
- IC50 (Hs766T; n2): 1370 nM
- IC50 (KP-4; mean): 17000 nM
- IC50 (KP-4; n1): 14700 nM
- IC50 (KP-4; n2): 19200 nM
- IC50 (Panc 10.05; mean): 73.5 nM
- IC50 (Panc 10.05; n1): 61.6 nM
- IC50 (Panc 10.05; n2): 85.3 nM
Structure (SMILES): Cc1c(Nc2nc3ccccc3s2)nnc2c1CCCN2c1ccc(-c2cnn(C[C@]34C[C@]5(C)C[C@](C)(C3)C[C@@](OCCNCCCO)(C5)C4)c2C)c(C(=O)O)n1 [P25, 6-[3-(1,3-benzothiazol-2-ylamino)-4-methyl-6,7-dihydro-5H-pyrido[2,3-c]pyridazin-8-yl]-3-[1-[[3-[2-(3-hydroxypropylamino)ethoxy]-5,7-dimethyl-1-adamantyl]methyl]-5-methyl-pyrazol-4-yl]pyridine-2-carboxylic acid]
- effect on the viability [1]: induced a dose dependent decrease in the viability

- IC50 (CALU1; Mean): 25.6 nM
- IC50 (CALU1; n1): 13.7 nM
- IC50 (CALU1; n2): 37.4 nM
- IC50 (HCC366; Mean): 7.45 nM
- IC50 (HCC366; n1): 4 nM
- IC50 (HCC366; n2): 10.9 nM
- IC50 (HCC4006; Mean): 4.66 nM
- IC50 (HCC4006; n1): 5.9 nM
- IC50 (HCC4006; n2): 3.42 nM
- IC50 (HCC78; Mean): 3.4 nM
- IC50 (HCC78; n1): 2.52 nM
- IC50 (HCC78; n2): 4.29 nM
- IC50 (HCC827; Mean): 5.27 nM
- IC50 (HCC827; n1): 4.11 nM
- IC50 (HCC827; n2): 6.42 nM
- IC50 (LU65; Mean): 29.7 nM
- IC50 (LU65; n1): 32.4 nM
- IC50 (LU65; n2): 27 nM
- IC50 (NCI-H1838; Mean): > 300 nM
- IC50 (NCI-H1838; n1): > 300 nM
- IC50 (NCI-H1838; n2): > 300 nM
- IC50 (NCI-H1975; Mean): 2.53 nM
- IC50 (NCI-H1975; n1): 3.34 nM
- IC50 (NCI-H1975; n2): 1.72 nM
- IC50 (NCI-H441; Mean): 6.48 nM
- IC50 (NCI-H441; n1): 9.2 nM
- IC50 (NCI-H441; n2): 3.75 nM
- IC50 (AsPC-1; mean): 10.2 nM
- IC50 (AsPC-1; n1): 12.4 nM
- IC50 (AsPC-1; n2): 8.06 nM
- IC50 (BxPC-3; mean): 0.93 nM
- IC50 (BxPC-3; n1): 0.6 nM
- IC50 (BxPC-3; n2): 1.25 nM
- IC50 (Hs766T; mean): > 30000 nM
- IC50 (Hs766T; n2): > 30000 nM
- IC50 (KP-4; mean): 2.33 nM
- IC50 (KP-4; n1): 0.47 nM
- IC50 (KP-4; n2): 4.19 nM
- IC50 (Panc 10.05; mean): 7.93 nM
- IC50 (Panc 10.05; n1): 5.65 nM
- IC50 (Panc 10.05; n2): 10.2 nM
Structure (SMILES): CC(=O)O[C@H]1C(=O)[C@@]2(C)[C@H]([C@H](OC(=O)c3ccccc3)[C@]3(O)C[C@H](OC(=O)[C@H](O)[C@@H](NC(=O)c4ccccc4)c4ccccc4)C(C)=C1C3(C)C)[C@]1(OC(C)=O)CO[C@@H]1C[C@@H]2O [Paclitaxel, paclitaxel]
- Maximal effect on the viability (viability decrease) ([1]; HCC-78, FIG. 3): 80%
- effect on the viability [1]: induced a dose dependent decrease in the viability
